# Laboratory results as given in paper PMC10595561, “A novel microextraction technique aided by air agitation using a natural hydrophobic deep eutectic solvent for the extraction of fluvastatin and empagliflozin from plasma samples: application to pharmacokinetic and drug–drug interaction study” (RSC Advances, 2023).
# Where two headings read alike, the source gives them in different places.
# Legend:
# [1] = Pharmacokinetic study of FLV in rabbits after oral FLV alone and with EMP; format: in vivo, New Zealand white rabbits; conditions: mean ± SD; for AUC(0-t) / k el / half-life / AUC(0-inf) / Cmax / MRT: rabbit, plasma, po, 2 mg/kg; for AUC(0-t): read-out: AUC0-24; for k el: read-out: Ke (elimination rate constant) (converted); for half-life: read-out: t0.5 (elimination half-life) (converted)
# Protocol: Ethical approval (under the No. 06/2023/0111) for this research was granted by the ethics committee at Assiut University, Egypt, and the study was conducted in adherence to the principles outlined in the Declaration of Helsinki. The study involved six New Zealand white rabbits, each weighing 2.0 ± 0.2 kg, obtained from a licensed animal supplier in Assiut, Egypt. Before commencing the study, the rabbits' health was evaluated, ensuring they were in good condition. The rabbits were individually housed in cages measuring 0.8 × 0.6 × 0.5 m and given a 15 day acclimatization period to adjust to the experimental conditions and handling. During this time, no medications or vaccines were administered to the rabbits. The room temperature was kept constant at 25 ± 2 °C, and the relative humidity was maintained at 50 ± 5%. Throughout the acclimatization period, the rabbits were provided with a commercial pellet diet and water. Before the experiment began, the rabbits fasted for approximately 12 hours while being allowed access to water.
# The rabbits administered FLV via oral route at a dose of 2.0 mg kg^−1. After a washout period of 14 days to allow any FLV to clear from the rabbits' bodies, the same rabbits administered both (2 mg kg^−1 for FLV and 1.5 mg kg^−1 for EMP). Blood samples (1.0 mL) were collected after administration of the studied analytes after 0.25, 0.5, 1, 1.5, 3, 5, 7, 10, 12, 18 and 24 h of their administration. The samples were drawn from marginal ear vein, placed into tubes that had been heparinized, and centrifuged for 15 minutes at 6000 rpm. The plasma was then collected and stored at −20 °C in dark containers until analysis. The pharmacokinetic parameters of FLV were calculated using one compartment model for the treated group using Phoenix®WinNonlin software version 5.1 (Pharsight, Mountain View, CA, USA). These parameters included total area under the curve (AUC) from 0 to 24 hours (AUC0→24), cumulative plasma concentration from 0 to infinity (AUC0→∞), peak plasma concentration (Cmax), elimination rate constant (Ke), mean residence time (MRT), absorption half-life (t1/2a), and elimination half-life (t1/2). The data are reported as mean ± standard deviation (mean ± SD). To analyze differences in parameters between the groups, t-test was employed, using GraphPad Prism 9.0.
# [2] = cited from earlier work
# [3] = carboxylic acid functional group; no reference given; cited from earlier work
# [4] = test system: organic anion transporting polypeptide 1B1 (OATP1B1); design: method as in PMID 27936281, PMID 19785645, PMID 29538325; conditions: cited from earlier work
# [5] = New Zealand white, FLV (2 mg kg−1) co-administered with EMP (1.5 mg kg−1), oral, rabbit plasma
# [6] = New Zealand white, FLV (2 mg kg−1) co-administered with EMP (1.5 mg kg−1), rabbit plasma
# [7] = New Zealand white, FLV alone, oral 2.0 mg kg−1, rabbit plasma
Compound,"Ka ([1]; FLV (2 mg kg−1) co-administered with EMP (1.5 mg kg−1), oral, rabbit plasma)","Ka ([1]; FLV alone, oral 2.0 mg kg−1, rabbit plasma)","AUC(0-t) [1, 5]","k el [1, 5]","half-life [1, 5]","AUC(0-inf) [1, 6]","Cmax [1, 6]","MRT [1, 6]","AUC(0-inf) [1, 7]","Cmax [1, 7]","MRT [1, 7]","AUC(0-t) [1, 7]","k el [1, 7]","half-life [1, 7]","Tmax [1, 5]",log P [2],pKa [3],Effect on OATP1B1 transporter [4]
"CC(C)n1c(/C=C/C(O)CC(O)CC(=O)O)c(-c2ccc(F)cc2)c2ccccc21 (stereo not shown) [FLV, Fluvastatin]",2.52 ± 0.42 h⁻¹,2.24 ± 0.42 h⁻¹,2580 ± 245 ng·h/mL,2.5e-05 s⁻¹,464 min,2900 ± 189 ng·h/mL,352 ng/mL,7.66 ± 0.77 h,1370 ± 144 ng·h/mL,250 ng/mL,6.99 ± 0.89 h,1340 ± 452 ng·h/mL,4.44e-05 s⁻¹,256 min,1.5 h,4.5,around 4.8,
"OC[C@H]1O[C@@H](c2ccc(Cl)c(Cc3ccc(O[C@H]4CCOC4)cc3)c2)[C@H](O)[C@@H](O)[C@@H]1O [EMP, Empagliflozin]",,,,,,,,,,,,,,,,1.7,,inhibit
